Experimental data: patent US8021658B2, “Alternative splice forms of proteins as basis for multiple therapeutic modalities” (Thomas Jefferson University, priority 2001, dated 2011)
Bridges are numbered along the chain shown (N, C = ends). Roman numbers before positions name the chains, in order. Where no end group is shown, it is not given here.

Tests used:
HC2 20d2/c tumor cells = test: Regression of HC2 20d2/c tumors in mice vaccinated with VEGF peptides; format: in vivo; conditions: FIG. 2; for tumor regression (average tumor volume vs. time): mice injected with HC2 20d2/c tumor cells, vaccinated four days post-injection with peptide plus murine GM-CSF; for reduction in average tumor volume: by the end of the study
Experimental: The VEGF peptides and the SEQ ID NO: 85 homodimer were evaluated for their ability to elicit an anti-tumor immune response in a mouse tumor model. A total of 112 syngeneic mice were divided into eight treatment groups of 14 mice each, and injected with HC2 20d2/c tumor cells. Four days post-injection, the first through fifth treatment groups were vaccinated in the left inguinal area with 100 μg of either SEQ ID NO: 73, SEQ ID NO: 75, SEQ ID NO: 77, SEQ ID NO: 79, or the SEQ ID NO: 81 dimer diluted in 100 μl of PBS mixed with 45 ng of murine GM-CSF as an adjuvant. The total volume of phosphate buffered saline (PBS) was 150 microliters with 2 mg/ml mouse serum albumin as a carrier. The sixth treatment group was vaccinated as above with a combination of all four VEGF peptides and the SEQ ID NO: 81 homodimer (60 μg each) in a total of 200 microliters of PBS with 45 ng of murine GM-CSF and 2 mg/ml mouse serum albumin. The seventh treatment group was vaccinated as above with 100 μg of a peptide derived from a mutant epidermal growth factor receptor (EGFR) protein called EGFRvIII (SEQ ID NO: 82). The vaccine composition also contained 45 ng of murine GM-CSF and 2 mg/ml mouse serum albumin. The EGFRvIII mutation is the result of a genomic rearrangement in the EGFR gene, and the EGFRvIII peptide (SEQ ID NO: 82) is reported to induce an immune response against tumor cells expressing the mutant receptor. The eighth treatment group was vaccinated with GM-CSF and 2 mg/ml mouse serum albumin in PBS with no peptide, as a control. All treatment groups were then injected once daily for the next 3 days with the 45 ng GM-CSF in the original area of vaccination.

[1] = tested on: HC2 20d2/c tumor cells pulsed with the immunizing peptide; test: ELISPOT assay (anti-interferon-gamma) of cytotoxic T lymphocyte activity of splenocytes from immunized mice; format: cell-based; conditions: FIG. 5; for CTL response compared with mouse treated with SEQ ID NO: 82 (EGFRvIII): mice which had undergone tumor regression
Experimental: Briefly, the ELISPOT method is performed by coating a cell culture dish or well with a cytokine capture antibody, for example an anti-interferon gamma antibody. The unoccupied spots on the culture dish or well are then blocked with a non-specific binding protein. Target cells, for example tumor cells, that endogenously synthesize the alternative splice form which has been used to stimulate PBLs are added to the culture dish or well. Alternatively, target cells can be pulsed with the peptide of interest. Activated PBLs are then added to the culture dish or well. If the activated PBLs specifically lyse the target cells, the PBLs secrete cytokines such as interferon-gamma, which is captured by the cytokine capture antibody initially coated onto the culture dish or well. A secondary antibody that recognized a different epitope of interferon gamma is then used to detect the presence of any interferon-gamma secreted by the PBLs and captured by the cytokine capture antibody. The secondary antibody can be conjugated with a detectable label, such as fluorescent or radioactive label. Identification of peptides of the invention which induce MHC-restricted cytotoxic T lymphocyte responses by the ELISPOT method is shown in Example 5 below.
Splenocytes from mice inoculated with GM-CSF only were used as a control (“control”). HC2 20d2/c tumor cells pulsed with 10 micrograms/ml of the immunizing peptide, or mouse serum albumin (for splenocytes from GM-CSF only treated animals) were used as the target cells for the treatment and control splenocytes, respectively. Untreated HC2 20d2/c tumor cells were used as negative control target cells.
The splenocytes were incubated at various ratios (from 10:1 to 2:1) with target cells in triplicate, and lytic events were identified with an ELISPOT assay using anti-interferon-gamma antibody as the cytokine capture antibody. The specific spots per 10^6 cells were quantitated using the lytic events from untreated target cells as the background, and then performing linear regression analysis.

[2] = splenocytes of immunized mice which had undergone tumor regression, target cells pulsed with the vaccinating peptide

Row | Substance | tumor regression (average tumor volume vs. time) (HC2 20d2/c tumor cells) | CTL response compared with mouse treated with SEQ ID NO: 82 (EGFRvIII) [1] | CTL response (ELISPOT) [1, 2] | CTL response (ELISPOT) ([1]; splenocytes of vaccinated mouse which had not undergone tumor regression) | tumor progression (HC2 20d2/c tumor cells; HC2 20d2/c tumor model) | duration of initial tumor progression (HC2 20d2/c tumor cells; HC2 20d2/c tumor model, after vaccination) | time until which regression is seen (HC2 20d2/c tumor cells; HC2 20d2/c tumor model) | time at which tumor regression is most notable (HC2 20d2/c tumor cells; HC2 20d2/c tumor model) | tumor progression (HC2 20d2/c tumor cells; HC2 20d2/c tumor model, listed as SEQ ID NO: 81) | reduction in average tumor volume (HC2 20d2/c tumor cells; HC2 20d2/c tumor model)
1 | R T K P E K C D K P R R (RTKPEKCDKPRR; VEGF alt splice #1) [SEQ ID NO: 73, peptide encoded by alternatively spliced mouse VEGF mRNA] | pattern of regression similar to that found for the EGFRvIII peptide | greater than that seen for the mouse treated with SEQ ID NO: 82 | strong CTL responses | poor CTL responses |  |  |  |  |  | 
2 | SEQ ID NO: 82: peptide derived from a mutant epidermal growth factor receptor (EGFR) protein called EGFRvIII (LEEKKGNYVVTDHC; EGFRvIII peptide) [reference compound] | distinct regression noted thereafter |  |  |  | progression was not as dramatic as the control mice | approximately 5 days |  |  |  | 
3 | V V K Q L V Q T P P L P P (VVKQLVQTPPLPP; VEGFB alt splice #1 peptide) [SEQ ID NO: 75, peptide encoded by alternatively spliced murine VEGFB mRNA] |  | greater than that seen for the mouse treated with SEQ ID NO: 82 | strong CTL responses |  | progress from that point onward |  | ~20 days after vaccination |  |  | 
4 | RTKPEKCDKPRRC (disulfide I:13-II:13; cysteine pairing not given here) [SEQ ID NO: 81 homodimer] | induce tumor regression to some degree |  |  |  | initially shows tumor progression |  | ~20 days after vaccination | 12 days after vaccination | progress from that point onward | strong reduction in average tumor volumes
5 | L E R S E S C E D R C P (LERSESCEDRCP; VEGFD alt splice #2 peptide) [SEQ ID NO: 79, peptide encoded by alternatively spliced murine VEGFD mRNA] |  |  |  |  |  |  |  |  |  | strong reduction in average tumor volumes
